The values that follow come from US7514432B2, “Compounds and methods of treating cell proliferative diseases, retinopathies and arthritis” (Exonhit Therapeutics SA, priority 2003, dated 2009).

The test system of data set [1] is HMEC1. As to the kind of experiment: Cell viability assay (MTT), HMEC1. To be noted: MTT, 10% FBS, 6-day treatment, 1% DMSO. The data set is classed as cell-based, Human. The gist of the method: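 HMEC1 cells seeded 24 h before dosing, then exposed to 0–200 μM compound (11 concentrations) in medium with 10% FBS and 1% DMSO final, refed every 3 days. Viability read on day 6 by MTT (0.5 mg/ml, 1–5 h at 37 °C), absorbance 550 nm; IC50 from dose-response curves, mean±SEM of 1–8 experiments.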

The subject of the next data set is MCF7. As to the kind of experiment: Cell viability assay (MTT), MCF7. The data set is classed as cell-based. As to conditions: Homo sapiens, 10% FBS, 1% DMSO. The procedure: Table 12: 6-day cell viability assay (MTT) in the presence of 10% Fetal Bovine Serum and 1% DMSO, in HMEC1, HCT116, MDA-MB-231, MCF7 and NIH3T3 cell lines. 3 10^3 to 15 10^3 cells were seeded in 48-well plates in growth medium containing 10% FBS, with or without various concentrations of test compounds. Cell cultures were fed every 3 days with the appropriate media. Cell viability was determined on day 6. Data were analyzed and IC50s were calculated from dose-response curves using GraphPad Prism. Results summarized in the tables are mean±SEM of 1 to 8 independent experiments.
(§1) Table 14: 3-day cell viability assay (MTT) in the presence of 10% Fetal Bovine Serum and 1% DMSO, in DLD1, HCT116, MDA-MB-231, MCF7 and HeLa cells. 7.5 10^3 to 1.5 10^4 cells were seeded in 48-well plates in growth medium containing 10% FBS, with or without various concentrations of test compounds. Data were analyzed and IC50s were calculated from dose-response curves using GraphPad Prism. Results summarized in the tables are mean±SEM of 1 to 7 independent experiments.
(§2) In order to determine a compound's effect on cell viability, microculture tetrazolium assays (MTT) were performed as described by Carmichael et al. (1996) with modifications. Four human tumoral cell lines, namely HCT116 colon adenocarcinoma, H460 lung carcinoma, MCF-7 and MDA-MB-231 breast carcinoma cell lines, DLD1 colorectal adenocarcinoma, HeLa adenocarcinoma, HepG2 hepatocellular carcinoma. 3 immortalized but non tumorigenic cell lines, namely NIH3T3 mouse fibroblasts (American Type Culture Collection) and primary hepatocytes (Biopredic international), cultured according to their recommendations together with Human Microvasculature Endothelial Cell line HMEC1 (National Center for Infectious Diseases). Briefly, cells were seeded in 48-well plates 24 hours before drug addition. Cells were treated with 0 to 200 μM (11 concentrations) of compound solubilized in DMSO, adjusting the final concentration of DMSO to 1% in the well. 16 hours, and three or six days after treatment, 0.5 mg/ml MTT (Sigma) was added to the medium and cells were incubated for 1-5 hours at 37° C. before solubilization of formazan crystals in 100% DMSO. Absorbance was measured using a spectrophotometer at a wavelength of 550 nm. Data was analyzed using the GraphPad Prism software (GraphPad Software, Inc.), and IC50 (dose leading to 50% cell death) was calculated from the dose-response curves.

The test system of another data set is DLD1. As to the kind of experiment: Cell viability assay (MTT), DLD1. The data set is classed as cell-based. As to conditions: Homo sapiens, DLD-1, 72 h, 10% FBS, 3-day treatment, 1% DMSO. The procedure:
as §1, §2

The next data set deals with HepG2. As to the kind of experiment: Cell viability assay (MTT), HepG2. The class given is cell-based. As to conditions: Homo sapiens, 10% FBS, 16-hours treatment, 1% DMSO. The method, then: (§3) Table 15: 16-hour cell viability assay (MTT) in the presence of 10% Fetal Bovine Serum and 1% DMSO, in HCT116, MDA-MB-231, NIH3T3, HepG2 and primary hepatocytes. 5 10^4 to 10 10^4 cells were seeded in 48-well plates in growth medium containing 10% FBS, with or without various concentrations of test compounds. Data were analyzed and IC50s were calculated from dose-reponse curves using GraphPad Prism. Results summarized in the tables are mean±SEM of 1 to 2 independent experiments.
as §2

Another data set has as its system Primary Hepatocytes. As to the kind of experiment: Cell viability assay (MTT), primary hepatocytes. The class given is cell-based. To be noted: Hepatocyte, 10% FBS, 16-hours treatment, 1% DMSO. The method, then: as §3, §2
Data set [2] relates to HMEC1. As to the kind of experiment: Boyden chamber migration assay, HMEC1. The class given is cell-based. As to conditions: Homo sapiens, read-out: IC50, migration in Boyden chamber, HMEC1. The procedure: FIG. 4: Migration assays. (A) Wound healing assay in REF cells. 7.6 10^4 cells were plated on coverslips 48 hours before the experiment. The cells were pre-treated for 30 min. with the compounds, and then a scrape was done using a pipette tip. The scraped coverslips in treatment medium were put under a thermostated microscope coupled to a video camera. Movies were analyzed as described in material and methods, and velocity and total distance covered by the cells were evaluated. Bar graphs represent the mean±SEM of 2 to 4 experiments. (B) Boyden chamber migration assay in HMEC1, NIH3T3 and MDA-MB-231 cells. 5 10^4 to 7.5 10^4 Cells, resuspended in culture medium with or without FBS and with different compound concentrations, were seeded in the upper Boyden blind well on top of 8 μm pore-sized filters. The ability of the cells to migrate through the filter was assayed in the absence or presence of FBS in the lower Boyden chamber. After 16 hours incubation, the medium was removed and replaced with calcein-AM containing medium. After labeling, cells were washed with HBSS and fluorescence was read in a fluorescence plate reader. Fluorescence values were normalized against the fluorescence obtained for the 1% DMSO control. The data plotted are the means±SEM of 2 to 4 independent experiments.
An essential characteristic of malignant cells is their ability to migrate, invade host tissues and to produce metastases. In order to evaluate the capacity of one compound to affect the ability of tumoral cells to migrate, migration assays were performed using highly invasive tumoral cells MDA-MB-231, endothelial cells HMEC1 or fibroblastic cells NIH3T3. This assay was performed using Falcon HTS Fluoroblock inserts. […] Fluorescence data were collected using Fluoroskan Ascent FL fluorescence plate reader at an excitation wavelength (Ex) of 485 nm and emission wavelength (Em) of 517 nm. Only those labelled cells that passed through the Matrigel layer and the membrane were detected. […]

Data set [3] can be described thus: Screening in vivo rising and repeated-dose toxicity study in rats. As to conditions: for body weight: at 300 mg/kg/day p.o.; for biological changes (hematology and blood biochemistry) / clinical signs / death during the study / tolerability: p.o. 10, 50, 300 mg/kg per day, 3 days each. The method, then: Screening in vivo rising and repeated-dose toxicity study in rats was performed on 3 rats per compound with the following schedule: • a. day 1 to day 3: 10 mg/kg p.o. per day, • b. day 4 to day 6: 50 mg/kg p.o. per day, • c. day 7 to day 9: 300 mg/kg p.o. per day.
Clinical signs, bodyweight, food consumption, and blood parameters were followed.

[4] abbreviates: HMEC-1, FBS as chemoattractant, 16 hours.

Turning to `Cl.Cl.O=c1cc(CN2CCOCC2)occ1OCCCCCSc1ccnc2cc(C(F)(F)F)ccc12` [EHT 1864, 5-(5-(7-(Trifluoromethyl)quinolin-4-ylthio)pentyloxy)-2-(morpholinomethyl)-4H-pyran-4-one dihydrochloride], the IC50 is 27.4 µM with HMEC1 [1] (Homo sapiens, HMEC-1, 144 h); 15.2 µM in the data set with MCF7 (MCF7, 72 h, 3-day treatment); 5.6 µM in the data set with MCF7 (MCF7, 144 h, 6-day treatment); 21.9 µM with DLD1; 60 µM with HepG2; over 50 µM in the data set with Primary Hepatocytes. The IC50 with HMEC1 [2] (HMEC-1, 16 h) was 7.8 ± 1.7 µM. Moreover, in data set [3], the body weight result was “mean body weight loss”. Besides, the “biological changes (hematology and blood biochemistry)” value (“biological changes” for short) in data set [3] was “Some limited biological changes”. Further, the clinical signs result in data set [3] is “Minimal clinical signs”. The “death during the study” value in data set [3] is on record as “No death occurred”. Further, the tolerability entry in data set [3] is given as “quite well tolerated up to 300 mg/kg/day”.
Turning to `CN1CCN(Cc2cc(=O)c(OCCCCCSc3ccnc4cc(C(F)(F)F)ccc34)co2)CC1.Cl.Cl.Cl` [EHT 9241, 5-(5-(7-(Trifluoromethyl)quinolin-4-ylthio)pentyloxy)-2-((4-methylpiperazin-1-yl)methyl)-4H-pyran-4-one trihydrochloride], the IC50 was under 10 µM with HMEC1 [1] (Homo sapiens, HMEC-1, 144 h); 8.2 µM with HMEC1 [1] (trihydrochloride); 7.5 µM in the data set with MCF7 (MCF7, 72 h, 3-day treatment); 1.2 µM with MCF7 (MCF7, 144 h, 6-day treatment); 8.1 µM in the data set with DLD1; 11.3 µM in the data set on HepG2. Moreover, the IC50 with Primary Hepatocytes worked out at 29.6 µM; in the data set on HMEC1 [2] (setting [4]), 9.1 ± 1.4 µM. The body weight result in data set [3] is “mean body weight loss”. The “biological changes” value in data set [3] is “Some limited biological changes”. For the same molecule, in data set [3], the clinical signs result is recorded as “Minimal clinical signs”. The “death during the study” value in data set [3] is “No death occurred”. In data set [3], the tolerability result is “quite well tolerated up to 300 mg/kg/day”.
As for `Cl.Cl.Cl.O=c1cc(CN2CCNCC2)occ1OCCCCCSc1ccnc2cc(C(F)(F)F)ccc12` [EHT 8560, 5-(5-(7-(Trifluoromethyl)quinolin-4-ylthio)pentyloxy)-2-((piperazin-1-yl)methyl)-4H-pyran-4-one trihydrochloride], the IC50 is under 10 µM in the data set with HMEC1 [1] (Homo sapiens, HMEC-1, 144 h); 6.1 µM in the data set with HMEC1 [1] (trihydrochloride); 9.2 µM with MCF7 (MCF7, 72 h, 3-day treatment); 5.6 µM in the data set with DLD1; 9.75 µM with HepG2; 17.3 µM in the data set with Primary Hepatocytes. Moreover, in the data set with HMEC1 [2] (setting [4]), the IC50 came out at 9.5 ± 0.3 µM. In addition, the body weight entry in data set [3] is “mean body weight loss”. In data set [3], the “biological changes” value is “Some limited biological changes”. In addition, the clinical signs result in data set [3] is recorded as “Minimal clinical signs”. Also, the “death during the study” value in data set [3] is “No death occurred”. In addition, in data set [3], the tolerability entry was “quite well tolerated up to 300 mg/kg/day”.
